From patent publication US8772499B2, “TRPV3 modulators” (AbbVie Inc., priority 2011, dated 2014)
Like-named read-outs stand apart in the source and are kept apart here.

Columns and labels:
[1] = target: T1, human TRPV3 (Homo sapiens, UniProt Q8NET8); test: In vitro antagonism of recombinant human TRPV3 activation (FLIPR Tetra calcium assay); format: cell-based; settings: HEK293 cells stably expressing human TRPV3, agonist 2-APB at 80 μM
T1 construct: expressed in transfected cells
T1 sequence (Q8NET8 1-790): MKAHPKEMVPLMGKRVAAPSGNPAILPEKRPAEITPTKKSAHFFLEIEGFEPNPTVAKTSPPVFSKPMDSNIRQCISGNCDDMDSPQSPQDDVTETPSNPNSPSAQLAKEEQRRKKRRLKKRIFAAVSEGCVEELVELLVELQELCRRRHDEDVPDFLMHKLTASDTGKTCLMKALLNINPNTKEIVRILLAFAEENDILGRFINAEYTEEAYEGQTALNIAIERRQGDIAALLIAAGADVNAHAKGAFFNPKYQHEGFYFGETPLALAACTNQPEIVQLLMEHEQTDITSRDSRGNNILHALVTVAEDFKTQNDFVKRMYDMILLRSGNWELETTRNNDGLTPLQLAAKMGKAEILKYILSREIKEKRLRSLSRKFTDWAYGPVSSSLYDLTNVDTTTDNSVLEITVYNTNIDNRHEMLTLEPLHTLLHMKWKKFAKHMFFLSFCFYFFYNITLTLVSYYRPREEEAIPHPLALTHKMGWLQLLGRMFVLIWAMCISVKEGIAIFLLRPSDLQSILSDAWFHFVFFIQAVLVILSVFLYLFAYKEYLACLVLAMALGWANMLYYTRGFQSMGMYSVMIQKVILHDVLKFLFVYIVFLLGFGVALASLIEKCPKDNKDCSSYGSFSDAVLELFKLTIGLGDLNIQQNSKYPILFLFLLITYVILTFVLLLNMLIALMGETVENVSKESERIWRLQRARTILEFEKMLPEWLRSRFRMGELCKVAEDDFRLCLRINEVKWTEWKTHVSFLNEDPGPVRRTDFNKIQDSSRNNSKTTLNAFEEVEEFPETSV
Procedure: Test compounds were evaluated for ability to antagonize the activation of recombinant human TRPV3 using FLIPR® Tetra cellular screening. Specifically, on the day prior to the experiment recombinant HEK293 cells that stably express human TRPV3 were removed from tissue culture flasks and plated in growth medium at 20,000 cells/well into Poly-d-lysine coated black/clear 384-well Plate (Corning, 3845) using a Multidrop® dispenser (ThermoScientific, Waltham, Mass.). Prior to the start of the assay, the medium was removed by aspiration, and cells were loaded with 30 μL no-wash FLIPR® Calcium-4 dye (λEX=470-495 nm, λEM=515-575 nm; Molecular Devices, Sunnyvale, Calif.). The cells were then incubated for 90-120 minutes in the dark prior to addition of the test compound.
A double-addition protocol was used. The test compound (i.e., the TRPV3 antagonist) was added at the 10 second time point, followed by the addition of a TRPV3 agonist three minutes later. Each test compound evaluated was first dissolved in DMSO to prepare a 10 mM stock solution. A solution (5×) of the test compound was then prepared in DPBS (Dulbecco's Phosphate Buffered Saline) and 10 μl, of that solution was added to the cells at a delivery rate of 40 μL/sec. The TRPV3 agonist used to activate human TRPV3 expressed by the […] was 2-aminoethoxy-diphenyl borate (2-APB; Tocris Cookson, Ellisville, Mo.) at 80 μM. Final assay volume was 50 μl, Total length of an experimental run was 10 minutes.
Changes in fluorescence were measured over time using the FLIPR® instrument. The intensity of the fluorescence was captured and digitally transferred to an interfaced computer. The maximum response minus minimum response was calculated and expressed as the percentage of the maximum 2-APB response in the absence of antagonist. The concentration of 2-APB corresponds to its EC80.
Table 1 reports the IC50 values measured for the test compounds as human TRPV3 antagonists. […] Actual measured values are shown parenthetically after the reported range. In most cases, the values reported are average values from at least two runs (i.e., n≧2).

[2] = In vitro human microsomal stability assay; format: in vitro ADME; settings: for HUMAN MICROSOMAL STABILITY (% REMAINING AFTER 30 MINUTES): microsomes, 0.5 h, 0.5 μM, pH 7.4
Procedure: (§1) Test compounds were evaluated for metabolic stability in an in vitro rat microsomal stability assay using rat liver microsomes (Sprague-Dawley, from BD Biosciences) and/or an in vitro human microsomal stability assay using human liver microsomes (Xenotech). […] Incubations were carried out at 37° C. with a final incubation volume of 135 μL. […] A 1.5 μL aliquot of reduced nicotine adenine disphosphonucleotide (NADPH) (Chem-Impex Int'L Inc., Lot 12532024) was also added to the time-zero plates.

[3] = In vitro rat microsomal stability assay; format: in vitro ADME, rat (Sprague-Dawley); settings: for RAT MICROSOMAL STABILITY (% REMAINING AFTER 30 MINUTES): Sprague-Dawley, microsomes, 0.5 h, 0.5 μM, pH 7.4
Procedure: as §1

[4] = actual measured value shown parenthetically, in most cases average of at least two runs, read-out: IC50
[5] = reported range, read-out: IC50 (range class)

Row | Compound | IC50 [1, 4] | IC50 [1, 5] | HUMAN MICROSOMAL STABILITY (% REMAINING AFTER 30 MINUTES) [2] | RAT MICROSOMAL STABILITY (% REMAINING AFTER 30 MINUTES) [3] | HUMAN […] (% REMAINING AFTER 30 MINUTES) ([2]; human liver microsomes, 0.5 μM substrate, 0.25 mg/mL microsomal protein, pH 7.4, 37° C., NADPH, 30 minutes) | RAT […] (% REMAINING AFTER 30 MINUTES) ([3]; rat liver microsomes (Sprague-Dawley), 0.5 μM substrate, 0.25 mg/mL microsomal protein, pH 7.4, 37° C., NADPH, 30 minutes)
1 | OC1CC(c2ccc(C(F)(F)F)cc2)([C@@H](O)c2ccccn2)C1 (mixture of isomers) [Example 199, 3-[(R)-hydroxy(pyridin-2-yl)methyl]-3-[4-(trifluoromethyl)phenyl]-cyclobutanol] | > 20000 nM | > 20000 nM | >85% | >85% |  | 
2 | O[C@@H](c1ccccn1)[C@]1(c2cc(C(F)(F)F)ccn2)C[C@H](O)C1 (relative stereo) [Example 290, cis-3-[(R)-hydroxy(pyridin-2-yl)methyl]-3-[4-(trifluoromethyl)pyridin-2-yl]cyclobutanol] |  | > 20000 nM |  |  | >85% | 71%
3 | OC(c1ccccn1)C1(c2ccc(C(F)(F)F)cc2)CCCO1 (single isomer, unassigned) [Example 88, (anti)-pyridin-2-yl{2-[4-(trifluoromethyl)phenyl]tetrahydrofuran-2-yl}methanol] | 370 nM |  | 38% | 7.0% |  | 
4 | OC(c1ccccn1)C1(c2ccc(C(F)(F)F)cc2)CCCO1 (single isomer, unassigned) [Example 89, (syn)-pyridin-2-yl{2-[4-(trifluoromethyl)phenyl]tetrahydrofuran-2-yl}methanol] | 2000 nM |  | 70% | 4.3% |  | 
5 | OC(c1ccccn1)C1(c2cccc(OC(F)(F)F)c2)CCCO1 (single isomer, unassigned) [Example 92, (anti)-pyridin-2-yl{2-[3-(trifluoromethoxy)phenyl]tetrahydrofuran-2-yl}methanol] | 100 nM |  | 2.7% | 0.23% |  | 
6 | OC(c1ccccn1)C1(c2cccc(OC(F)(F)F)c2)CCCO1 (single isomer, unassigned) [Example 93, (syn)-pyridin-2-yl{2-[3-(trifluoromethoxy)phenyl]tetrahydrofuran-2-yl}methanol] | 590 nM |  | 12% | 0.33% |  | 
7 | OC(c1ccccn1)C1(c2ccc(OC(F)(F)F)cc2)CCCO1 (single isomer, unassigned) [Example 94, (anti)-pyridin-2-yl{2-[4-(trifluoromethoxy)phenyl]tetrahydrofuran-2-yl}methanol] | 360 nM |  | 55% | 3.8% |  | 
8 | OC(c1ccccn1)C1(c2ccc(OC(F)(F)F)cc2)CCCO1 (single isomer, unassigned) [Example 95, (syn)-pyridin-2-yl{2-[4-(trifluoromethoxy)phenyl]tetrahydrofuran-2-yl}methanol] | 1850 nM |  | 57% | 0.61% |  | 
9 | OC(c1ccccn1)C1(c2ccccc2OC(F)(F)F)CCCO1 (single isomer, unassigned) [Example 96, (anti)-pyridin-2-yl{2-[2-(trifluoromethoxy)phenyl]tetrahydrofuran-2-yl}-methanol] | 1220 nM |  | 0.68% | 0.15% |  | 
10 | OC(c1ccccn1)C1(c2ccccc2OC(F)(F)F)CCCO1 (single isomer, unassigned) [Example 97, (syn)-pyridin-2-yl{2-[2-(trifluoromethoxy)phenyl]tetrahydrofuran-2-yl}-methanol] | 300 nM |  | 6.4% | 0.16% |  | 
11 | OC(c1ccccn1)C1(c2ccc(Cl)c(Cl)c2)CCCO1 (single isomer, unassigned) [Example 98] | 110 nM |  | 7.6% | 0.020% |  | 
12 | OC(c1ccccn1)C1(c2ccc(Cl)c(Cl)c2)CCCO1 (single isomer, unassigned) [Example 99, (syn)-[2-(3,4-dichlorophenyl)tetrahydrofuran-2-yl](pyridin-2-yl)methanol] | 1240 nM |  | 30% | 0.17% |  | 
13 | OC(c1ccccn1)C1(c2cccc(F)c2)CCCO1 (single isomer, unassigned) [Example 100, (anti)-[2-(3-fluorophenyl)tetrahydrofuran-2-yl](pyridin-2-yl)methanol] | 830 nM |  | 26% | 2.9% |  | 
14 | OC(c1ccccn1)C1(c2cccc(F)c2)CCCO1 (single isomer, unassigned) [Example 101, (syn)-[2-(3-fluorophenyl)tetrahydrofuran-2-yl](pyridin-2-yl)methanol] | > 20000 nM | > 20000 nM | 40% | 0.17% |  | 
15 | OC(c1ccccn1)C1(c2cccc(Cl)c2)CCCO1 (single isomer, unassigned) [Example 104, (anti)-[2-(3-chlorophenyl)tetrahydrofuran-2-yl](pyridin-2-yl)methanol] | 280 nM |  | 15% | 0.42% |  | 
16 | OC(c1ccccn1)C1(c2cccc(Cl)c2)CCCO1 (single isomer, unassigned) [Example 105, (syn)-[2-(3-chlorophenyl)tetrahydrofuran-2-yl](pyridin-2-yl)methanol] | 7570 nM |  | 42% | 0.040% |  | 
17 | OC(c1ccccn1)C1(c2cccc(C(F)(F)F)c2)CCCO1 (single isomer, unassigned) [Example 106, (anti)-pyridin-2-yl{2-[3-(trifluoromethyl)phenyl]tetrahydrofuran-2-yl}-methanol] | 210 nM |  | 3.9% | 1.6% |  | 
